Our source for the IC50 values is US11591365B2, “BCL9 peptides and variants thereof” (WntRx Pharmaceuticals Inc., priority 2017, dated 2023).

The structures appear in SMILES notation. *1 amine or outer side, *2 acyl side, *3 side chain or, on linkers, in order; H or OH if unused. Where a SMILES comes first, the peptide text is derived from it. Bridges are numbered along the chain shown (N, C = ends). [ ]: non-standard residue; d: D form. The star is where a group is joined. 2Nal = N[C@@H](Cc1ccc2ccccc2c1)C(=O)O; X1 = NC(=O)CCCCN(CC(=O)[*:2])[*:1]; NMeR = CN[C@@H](CCCNC(=N)N)C(=O)O; Palmitoyl = CCCCCCCCCCCCCCCC(=O)*; hArg = N=C(N)NCCCC[C@H](N)C(=O)O; NMeQ = CN[C@@H](CCC(N)=O)C(=O)O; NMeD = CN[C@@H](CC(=O)O)C(=O)O; Cba = N[C@@H](CC1CCC1)C(=O)O; PEG4 = NCCOCCOCCOCCOCCC(=O)O; S5 = C=CCCC[C@](C)(N)C(=O)O; Ac4c = NC1(C(=O)O)CCC1

The test system of the experiment is Colo320DM. The experiment can be described thus: Colo320DM cell viability. It counts as cell-based, human. From the text:
In some embodiments, a polypeptide described herein inhibits binding of BLC9 to β-catenin when assessed in a cell-viability assay. In some embodiments, the cell-viability assay is a CellTiterGlo luminescent assay, wherein the viability of cells is quantitatively measured. Various cell lines, transformed cell lines or primary cells derived from a healthy subject or subject suffering from a disease can be used in this assay.
Broadly, the IC50 is the point on the concentration scale where inhibition reaches its midpoint. A low value points to greater potency in that assay. Turning to `CC[C@H](C)[C@@H]1NC(=O)[C@@](C)(NC(=O)[C@H](CCCNC(=N)N)NC(=O)[C@H](CC(C)C)NC(=O)[C@@H](NC(=O)[C@H](CCC(N)=O)N(C)C(=O)[C@H](CC(C)C)NC(=O)[C@H](CO)NC(=O)[C@H](CCCNC(=N)N)NC(=O)[C@H](CCC(N)=O)N(C)C(=O)[C@H](CCCNC(=N)N)NC(=O)[C@H](Cc2c[nH]cn2)NC(C)=O)[C@@H](C)O)CCCC=CCCC[C@@](C)(C(=O)N[C@@H](CC2CCC2)C(=O)N[C@@H](Cc2ccc3ccccc3c2)C(N)=O)NC(=O)[C@H](CCCNC(=N)N)NC(=O)[C@H](CCC(N)=O)NC1=O` [SEQ ID NO: 155, HR(N-methylQ)RSL(N-methylQ)TLRXIQRX(CBA)(2-Nal)] (Ac-HR[NMeQ]RSL[NMeQ]TLR[S5]IQR[S5][Cba][2Nal]-NH2; staple 11-15), the IC50 is 2.15 µM.

`CC[C@H](C)[C@@H]1NC(=O)[C@@](C)(NC(=O)[C@H](CCCNC(=N)N)NC(=O)[C@H](CC(C)C)NC(=O)[C@@H](NC(=O)[C@H](CCC(N)=O)NC(=O)[C@H](CC2CCC2)NC(=O)[C@H](CO)NC(=O)[C@H](CCCNC(=N)N)NC(=O)[C@H](CCC(N)=O)NC(=O)[C@H](CCCNC(=N)N)NC(=O)[C@H](Cc2c[nH]cn2)NC(C)=O)[C@@H](C)O)CCCC=CCCC[C@@](C)(C(=O)N[C@@H](CC2CCC2)C(=O)N[C@@H](Cc2ccc3ccccc3c2)C(N)=O)NC(=O)[C@H](CCCNC(=N)N)NC(=O)[C@H](CCC(N)=O)NC1=O` [SEQ ID NO: 156, HRQRS(CBA)QTLRXIQRX(CBA)(2-Nal)] (Ac-HRQRS[Cba]QTLR[S5]IQR[S5][Cba][2Nal]-NH2; staple 11-15) gave an IC50 of 2.63 µM.

Molecule `CC[C@H](C)[C@@H]1NC(=O)[C@@](C)(NC(=O)[C@H](CCCNC(=N)N)NC(=O)[C@H](CC(C)C)NC(=O)[C@@H](NC(=O)[C@H](CCC(N)=O)NC(=O)[C@H](CC(C)C)NC(=O)[C@H](CO)NC(=O)[C@H](CCCNC(=N)N)NC(=O)[C@H](CC(=O)O)N(C)C(=O)[C@H](CCCNC(=N)N)NC(=O)[C@H](Cc2c[nH]cn2)NC(C)=O)[C@@H](C)O)CCCC=CCCC[C@@](C)(C(=O)N[C@@H](CC2CCC2)C(=O)N[C@@H](Cc2ccc3ccccc3c2)C(N)=O)NC(=O)[C@H](CCCNC(=N)N)NC(=O)[C@H](CCC(N)=O)NC1=O` [SEQ ID NO: 157, HR(N-methylD)RSLQTLRXIQRX(CBA)(2-Nal)] (Ac-HR[NMeD]RSLQTLR[S5]IQR[S5][Cba][2Nal]-NH2; staple 11-15) yielded an IC50 of 3.17 µM. Consider `CC[C@H](C)[C@@H]1NC(=O)[C@@](C)(NC(=O)[C@H](CCCNC(=N)N)NC(=O)[C@H](CC(C)C)NC(=O)[C@@H](NC(=O)[C@H](CCC(N)=O)NC(=O)[C@H](CC(C)C)NC(=O)[C@@H](NC(=O)[C@H](CCCNC(=N)N)NC(=O)[C@H](CCC(N)=O)NC(=O)[C@H](CCCNC(=N)N)NC(=O)[C@H](Cc2c[nH]cn2)NC(C)=O)[C@@H](C)O)[C@@H](C)O)CCCC=CCCC[C@@](C)(C(=O)N[C@@H](CC2CCC2)C(=O)N[C@@H](Cc2ccc3ccccc3c2)C(N)=O)NC(=O)[C@H](CCCNC(=N)N)NC(=O)[C@H](CCC(N)=O)NC1=O` [SEQ ID NO: 159, HRQRTLQTLRXIQRX(CBA)(2-Nal)] (Ac-HRQRTLQTLR[S5]IQR[S5][Cba][2Nal]-NH2; staple 11-15), for which the IC50 is 2.48 µM. The molecule `CCCCCCCCCCCCCCCC(=O)NCCOCCOCCOCCOCCC(=O)N[C@@H](Cc1c[nH]cn1)C(=O)N[C@@H](CCCNC(=N)N)C(=O)N[C@@H](CCC(N)=O)C(=O)N[C@@H](CCCNC(=N)N)C(=O)N[C@@H](CO)C(=O)N[C@@H](CC(C)C)C(=O)N[C@@H](CCC(N)=O)C(=O)N[C@H](C(=O)N[C@@H](CC(C)C)C(=O)N[C@@H](CCCNC(=N)N)C(=O)N[C@@]1(C)CCCC=CCCC[C@@](C)(C(=O)N[C@@H](CC2CCC2)C(=O)N[C@@H](Cc2ccc3ccccc3c2)C(N)=O)NC(=O)[C@H](CCCNC(=N)N)NC(=O)[C@H](CCC(N)=O)NC(=O)[C@H]([C@@H](C)CC)NC1=O)[C@@H](C)O` [SEQ ID NO: 160, HRQRSLQTLRXIQRX(CBA)(2-Nal)] ({Palmitoyl-PEG4}-HRQRSLQTLR[S5]IQR[S5][Cba][2Nal]-NH2; staple 11-15) returned an IC50 of 0.83 µM. As to `CCCCCCCCCCCCCCCC(=O)NCCOCCOCCOCCOCCC(=O)NCCCC[C@H](NC(=O)[C@H](Cc1ccc2ccccc2c1)NC(=O)[C@H](CC1CCC1)NC(=O)[C@]1(C)CCCC=CCCC[C@](C)(NC(=O)[C@H](CCCNC(=N)N)NC(=O)[C@H](CC(C)C)NC(=O)[C@@H](NC(=O)[C@H](CCC(N)=O)NC(=O)[C@H](CC(C)C)NC(=O)[C@H](CO)NC(=O)[C@H](CCCNC(=N)N)NC(=O)[C@H](CCC(N)=O)NC(=O)[C@H](CCCNC(=N)N)NC(=O)[C@H](Cc2c[nH]cn2)NC(C)=O)[C@@H](C)O)C(=O)N[C@@H]([C@@H](C)CC)C(=O)N[C@@H](CCC(N)=O)C(=O)N[C@@H](CCCNC(=N)N)C(=O)N1)C(N)=O` [SEQ ID NO: 161, HRQRSLQTLRXIQRX(CBA)(2-Nal)], the IC50 was 3.35 µM. In the case of `CC[C@H](C)[C@@H]1NC(=O)[C@@](C)(NC(=O)[C@H](CCCNC(=N)N)NC(=O)[C@H](CC(C)C)NC(=O)[C@@H](NC(=O)[C@H](CCC(N)=O)NC(=O)[C@H](CC(C)C)NC(=O)[C@H](CO)NC(=O)[C@H](CCCCNC(=N)N)NC(=O)[C@H](CCC(N)=O)NC(=O)[C@H](CCCNC(=N)N)NC(=O)[C@H](Cc2c[nH]cn2)NC(C)=O)[C@@H](C)O)CCCC=CCCC[C@@](C)(C(=O)N[C@@H](CC2CCC2)C(=O)N[C@@H](Cc2ccc3ccccc3c2)C(N)=O)NC(=O)[C@H](CCCNC(=N)N)NC(=O)[C@H](CCC(N)=O)NC1=O` [SEQ ID NO: 167, HRQ(homoR)SLQTLRXIQRX(CBA)(2-Nal)] (Ac-HRQ[hArg]SLQTLR[S5]IQR[S5][Cba][2Nal]-NH2; staple 11-15), the IC50 was determined as 4.76 µM. Take `CC[C@H](C)[C@@H]1NC(=O)[C@@](C)(NC(=O)[C@H](CCCNC(=N)N)NC(=O)[C@H](CC(C)C)NC(=O)[C@@H](NC(=O)[C@H](CCC(N)=O)NC(=O)[C@H](CC(C)C)NC(=O)[C@H](CO)NC(=O)[C@H](CCCNC(=N)N)N(C)C(=O)[C@H](CCC(N)=O)NC(=O)[C@H](CCCNC(=N)N)NC(=O)[C@H](Cc2c[nH]cn2)NC(C)=O)[C@@H](C)O)CCCC=CCCC[C@@](C)(C(=O)N[C@@H](CC2CCC2)C(=O)N[C@@H](Cc2ccc3ccccc3c2)C(N)=O)NC(=O)[C@H](CCCNC(=N)N)NC(=O)[C@H](CCC(N)=O)NC1=O` [SEQ ID NO: 168, HRQ(N-methylR)SLQTLRXIQRX(CBA)(2-Nal)] (Ac-HRQ[NMeR]SLQTLR[S5]IQR[S5][Cba][2Nal]-NH2; staple 11-15; N-terminus and C-terminus assumed): the IC50 is 4.14 µM. Molecule `CC[C@H](C)[C@@H]1NC(=O)[C@@](C)(NC(=O)[C@H](CCCNC(=N)N)NC(=O)[C@H](CC(C)C)NC(=O)[C@@H](NC(=O)CN(CCCCC(N)=O)C(=O)[C@H](CC(C)C)NC(=O)[C@H](CO)NC(=O)[C@H](CCCNC(=N)N)NC(=O)[C@H](CCC(N)=O)NC(=O)[C@H](CCCNC(=N)N)NC(=O)[C@H](Cc2c[nH]cn2)NC(C)=O)[C@@H](C)O)CCCC=CCCC[C@@](C)(C(=O)N[C@@H](CC2CCC2)C(=O)N[C@@H](Cc2ccc3ccccc3c2)C(N)=O)NC(=O)[C@H](CCCNC(=N)N)NC(=O)[C@H](CCC(N)=O)NC1=O` [SEQ ID NO: 169, HRQRSL(peptoid-Q)TLRXIQRX(CBA)(2-Nal)] (Ac-HRQRSL[X1]TLR[S5]IQR[S5][Cba][2Nal]-NH2; staple 11-15) showed an IC50 of 4.98 µM. As for `CC[C@H](C)[C@@H]1NC(=O)[C@@](C)(NC(=O)[C@H](CCCCNC(=N)N)NC(=O)[C@H](CC(C)C)NC(=O)[C@@H](NC(=O)[C@H](CCC(N)=O)NC(=O)[C@H](CC(C)C)NC(=O)[C@H](CO)NC(=O)[C@H](CCCNC(=N)N)NC(=O)[C@H](CCC(N)=O)NC(=O)[C@H](CCCNC(=N)N)NC(=O)[C@H](Cc2c[nH]cn2)NC(C)=O)[C@@H](C)O)CCCC=CCCC[C@@](C)(C(=O)N[C@@H](CC2CCC2)C(=O)N[C@@H](Cc2ccc3ccccc3c2)C(N)=O)NC(=O)[C@H](CCCNC(=N)N)NC(=O)[C@H](CCC(N)=O)NC1=O` [SEQ ID NO: 170, HRQRSLQTL(homoR)XIQRX(CBA)(2-Nal)] (Ac-HRQRSLQTL[hArg][S5]IQR[S5][Cba][2Nal]-NH2; staple 11-15), the figure is 5.17 µM. `CC[C@H](C)[C@@H]1NC(=O)[C@@](C)(NC(=O)[C@H](CCCNC(=N)N)NC(=O)[C@H](CC(C)C)NC(=O)[C@@H](NC(=O)[C@H](CCC(N)=O)NC(=O)[C@H](CC(C)C)NC(=O)[C@H](CO)NC(=O)[C@H](CCCNC(=N)N)NC(=O)[C@H](CCC(N)=O)NC(=O)[C@H](CCCNC(=N)N)NC(=O)[C@H](Cc2c[nH]cn2)NC(C)=O)[C@@H](C)O)CCCC=CCCC[C@@](C)(C(=O)N[C@@H](CC2CCC2)C(=O)N[C@@H](Cc2ccc3ccccc3c2)C(N)=O)NC(=O)[C@H](CCCCNC(=N)N)NC(=O)[C@H](CCC(N)=O)NC1=O` [SEQ ID NO: 171, HRQRSLQTLRXIQ(homoR)X(CBA)(2-Nal)] (Ac-HRQRSLQTLR[S5]IQ[hArg][S5][Cba][2Nal]-NH2; staple 11-15) yielded an IC50 of 4.76 µM.

Regarding `CC[C@H](C)[C@@H]1NC(=O)[C@@](C)(NC(=O)[C@H](CCCNC(=N)N)NC(=O)[C@H](CC(C)C)NC(=O)[C@@H](NC(=O)[C@H](CCC(N)=O)NC(=O)[C@H](CC(C)C)NC(=O)[C@H](CO)NC(=O)[C@H](CCCNC(=N)N)NC(=O)[C@H](CCC(N)=O)NC(=O)[C@H](CCCNC(=N)N)NC(=O)[C@H](Cc2c[nH]cn2)NC(C)=O)[C@@H](C)O)CCCC=CCCC[C@@](C)(C(=O)NC2(C(=O)N[C@@H](Cc3ccc4ccccc4c3)C(N)=O)CCC2)NC(=O)[C@H](CCCNC(=N)N)NC(=O)[C@H](CCC(N)=O)NC1=O` [SEQ ID NO: 176, HRQRSLQTLRXIQRX(AC4C)(2-Nal)] (Ac-HRQRSLQTLR[S5]IQR[S5][Ac4c][2Nal]-NH2; staple 11-15), the IC50 was > 5 µM.
